Test system: HCV Genotype 3
Test: Patient-derived monocytes fused to hepatocytes, HCV RNA by qPCR
Type: cell-based
Conditions: fused cells from patients with genotype 3 HCV; 3 to 7 days with telaprevir; FIG. 8
Description: Patient derived monocytes from patients with genotype 1 and genotype 3 HCV were taken and incubated for a variety of different times (ranging from 3 to 7 days) with telaprevir at concentrations known to inhibit HCV RNA. The amount of HCV RNA was assessed using a standard qPCR technique and is expressed as the raw Ct value from the Corbett Rotorgene.
CD14+ monocytes were positively selected from total PBMCs by magnetic cell separation, according to the manufacturer's instructions. The CD14+ cells obtained were counted and pelleted with an equal number of HuH 7.5 cells. The cell pellet was resuspended in pre-warmed polyethylene glycol 1500 (PEG 1500, Roche) over 1 minute then incubated at 37° C. for 2 minutes. […]
RNA was extracted from fused cells immediately after fusion and following a 5 day incubation using TRIzol reagent (Invitrogen). Total RNA obtained was quantified using the RiboGreen assay (Invitrogen). HCV RNA was measured by reverse transcription-quantitative PCR (RT-qPCR) using the Quantitect viral nucleic acid detection kit (Qiagen) in 20 μL volumes with a TaqMan primer and probe for HCV detection (Applied Biosystems). 10-fold serial dilutions of PCR product corresponding to a 319 nucleotide segment between the 5′untranslated region and E1 region of the HCV genome were included as a quantitative standard. […]

SMILES: CCC[C@H](NC(=O)[C@@H]1[C@H]2CCC[C@H]2CN1C(=O)[C@@H](NC(=O)[C@@H](NC(=O)c1cnccn1)C1CCCCC1)C(C)(C)C)C(=O)C(=O)NC1CC1 [telaprevir]
- replication of HCV (HCV RNA): not inhibited
